{"source": "paper PMC9138994", "about": "(Biomolecules, 2022)", "test_system": "C57BL/6 mice", "experiment": "Tail suspension test (TST)", "format": "in vivo", "conditions": "acute i.p. pretreatment, ST-2300 10 or 15 mg/kg, PIM 5–15 mg/kg, FLX 10 mg/kg, vs saline controls, C57BL/6 mice, 6 min", "protocol": "Inbred adult male C57BL/6 mice (aged 10–12 weeks and weighing 20–25 g) were obtained from the animal facility in the College of Medicine and Health Sciences, United Arab Emirates University. The animals were maintained in a separate air-conditioned room with controlled temperature and humidity (24 ± 2 °C and 55 ± 15%, respectively), with a 12 h light/dark cycle, and ad libitum to food and water. All the experiments were performed between 9.00 am and 3.00 pm. The procedures were approved by the Institutional Animal Ethics Committee of College of Medicine and Health Sciences/United Arab Emirates University (Approval No. ERA-2019-6010). To reduce the suffering of the animals, a minimum number of animals were used in this study, whereas the objectives were not compromised.\nThese experiments provide the first behavioral assessment of the ST-2300 in anxiety-like and depression-like behaviors in mice. All doses are expressed in terms of the free base of all test compounds. The drugs used in the current study were dissolved in saline and injected i.p. at a volume of 1 mL/kg. All experimental procedures were conducted in a blinded fashion in which the experimenter was uninformed about the specific treatment groups to which an animal group belonged. Saline, ST-2300 (5, 10, and 15 mg/kg), PIM (5, 10, and 15 mg/kg), FLX (10 mg/kg), RAM (10 mg/kg), and DZP (1 mg/kg) were injected i.p. 30–45 min before the beginning of the behavioral experiments.\nThis experimental protocol was followed as previously described, however with slight modifications. Each mouse was suspended on the edge of a rod 50 cm above a table top using adhesive Scotch tape placed approximately 1 cm from the tip of the tail. Tail climbing was prevented by passing the mouse’s tail through a small plastic cylinder prior to suspension, as described by Can et al.. The duration of immobility was manually scored for a 6 min observation period. Mice were considered immobile only when they hung down passively and were completely motionless. The parameter recorded was the number of seconds spent immobile."}
{"compound": "CNCCC(Oc1ccc(C(F)(F)F)cc1)c1ccccc1", "note": "(stereo not shown) [FLX, fluoxetine, reference compound]", "values": [{"measurement": "immobility time in TST", "value": "significant differences between FLX and saline controls"}]}
